Several values for one entry are separate records, joined by “and”; a condition that tells them apart may be missing. Equal entries are not always repeated.

The nature of data set [1]: Toxicity assay (LD50) in rats. The conditions noted are these: rat, in vivo. The procedure: (§1) The LD₅₀ value was in excess of 750 mg/kg in both species.
A short description of data set [2]: Toxicity assay (LD50) in mice. The conditions noted are these: mouse, in vivo. The procedure: as §1
The subject of data set [3] is feline leukaemia virus (FeLV). The data set is described as follows: In vitro anti-feline leukaemia virus activity, indirect fluorescent antigen test in FLF-3 cells. Type of data set: cell-based, feline embryo lung fibroblasts (FLF-3). The conditions noted are these: 3 days incubation at 37°C. As for the experimental part:
(§2) • (i) In Vitro Activity Susceptible feline embryo lung fibroblasts (FLF-3) were seeded onto multiwell slides (10⁵ cells/ml, 0.05ml/well) with Dulbecco-modified Eagle's essential medium (DME) and incubated at 37°C overnight. […] Concentrations were […]. After 3 days incubation at 37°C, the cultures were assayed by the indirect fluorescent antigen test for the production of FeLV. […] Two cats (a) received 15mg/kg/day, three (b) received 30mg/kg/day and another two (c) received 45mg/kg/day. All doses were administered as three equal doses daily. Of cats (a), only one responded to treatment at all, showing a 10% decrease in FeLV⁺ white blood cells (wbc's). Cats (b) (after 6 weeks) all responded to treatment showing a 10% and 90% drop in Fel_V⁺ wbc's. […] All measurements were taken after 3 weeks therapy, unless otherwise stated.

A further data set has as its system FeLV. The data set is described as follows: In vivo anti-feline leukaemia virus activity in persistently infected cats. The procedure: as §2

For the molecule `Cc1cn([C@H]2C[C@H](N=[N+]=[N-])[C@@H](CO)O2)c(=O)[nH]c1=O`, the median lethal dose (LD50) in data set [1] and in data set [2] was more than 750 mg/kg in each case. The “production of FeLV” value in data set [3] (50µM and above) is “Complete absence of FeLV”. For the same molecule, the activity result in data set [3] (0.1µm) was “no activity”. The inhibition (in general, the percentage by which the read-out fell short of the control) in data set [3] (1µm) is 50-75%. In addition, the inhibition at 10 µM in data set [3] (72 h, 10µM) came to 90%. Moreover, in the data set on FeLV (cats (a), intravenous 15mg/kg/day in three equal doses daily, after 3 weeks, only one of two cats responded), the “decrease in FeLV+ white blood cells (wbc's)” value turned out to be 10%. Also, in the data set on FeLV (cats (b), intravenous 30mg/kg/day in three equal doses daily, after 6 weeks, individual cats, 30 mg/kg/day), the “drop in FeLV+ wbc's” value is 10% and 90% and 5%. For the same molecule, the “drop in plasma levels of free FeLV” value in the data set with FeLV (cats (b), third cat, intravenous 30mg/kg/day, after 6 weeks) is on record as “hundred-fold”. Further, in the data set with FeLV (cats (c), intravenous 45mg/kg/day in three equal doses daily, after 3 weeks, one of two cats), the “decrease in FeLV+ wbc's” value is on record as 10%. Besides, in the data set with FeLV (cats (c), intravenous 45mg/kg/day, after 3 weeks, one cat), the reduction in lymphadenopathy entry is on record as “from 2 cm to 0.5 cm”. Further, the response to treatment entry with FeLV (cats (c), intravenous 45mg/kg/day, after 3 weeks, the other of two cats) is “no response”.

These data come from patent EP0199451B1, “Therapeutic nucleosides” (THE WELLCOME FOUNDATION LIMITED, priority 1985, dated 1986).
